Data set [1] relates to H226 (KRAS wildtype cell line). Kind of data set: Proliferation Assay H226. Type of data set: cell-based. As to conditions: Homo sapiens, NCI-H226, n = 1. The gist of the method: (§1)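 Cells plated 2000 per well, allowed 24 h to attach, then exposed 72 h to agents (0-100 μM for isogenic lines; 0.01 to 50 μM for the RPMI 1640/10% FBS-cultured 30-line NSCLC panel). MTS read at 490 nm after 2 h, normalized to no-cell and no-drug controls; IC50 from curve fitting.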

In a further data set the target is T1, rHuman carboxyesterase 1 (Homo sapiens, UniProt P23141).
T1 sequence (P23141 18-567): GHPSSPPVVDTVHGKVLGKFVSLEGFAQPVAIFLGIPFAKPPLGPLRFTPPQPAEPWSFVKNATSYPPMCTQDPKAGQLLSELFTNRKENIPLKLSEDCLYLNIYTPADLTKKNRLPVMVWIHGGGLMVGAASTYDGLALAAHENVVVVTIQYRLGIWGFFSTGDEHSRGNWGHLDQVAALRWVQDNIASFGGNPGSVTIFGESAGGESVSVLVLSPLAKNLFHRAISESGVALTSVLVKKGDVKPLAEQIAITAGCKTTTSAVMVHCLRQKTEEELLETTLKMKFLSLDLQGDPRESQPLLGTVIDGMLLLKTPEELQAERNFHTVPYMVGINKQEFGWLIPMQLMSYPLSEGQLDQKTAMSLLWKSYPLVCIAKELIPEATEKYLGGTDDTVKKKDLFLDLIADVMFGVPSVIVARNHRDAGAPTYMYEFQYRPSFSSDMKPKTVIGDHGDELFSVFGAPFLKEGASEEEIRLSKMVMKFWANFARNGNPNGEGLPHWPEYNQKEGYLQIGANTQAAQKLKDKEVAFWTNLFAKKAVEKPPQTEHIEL
Description: Stability with carboxyesterase 1. Format: in vitro ADME. As to conditions: rHuman carboxyesterase 1 24 U/ml, pH 7.4, 37° C.

Data set [2] concerns the target T2, direct binding of CNKSR1 to mut-KRAS (Homo sapiens, UniProt Q969H4).
T2 construct: expressed in transfected cells
T2 sequence (Q969H4 1-720): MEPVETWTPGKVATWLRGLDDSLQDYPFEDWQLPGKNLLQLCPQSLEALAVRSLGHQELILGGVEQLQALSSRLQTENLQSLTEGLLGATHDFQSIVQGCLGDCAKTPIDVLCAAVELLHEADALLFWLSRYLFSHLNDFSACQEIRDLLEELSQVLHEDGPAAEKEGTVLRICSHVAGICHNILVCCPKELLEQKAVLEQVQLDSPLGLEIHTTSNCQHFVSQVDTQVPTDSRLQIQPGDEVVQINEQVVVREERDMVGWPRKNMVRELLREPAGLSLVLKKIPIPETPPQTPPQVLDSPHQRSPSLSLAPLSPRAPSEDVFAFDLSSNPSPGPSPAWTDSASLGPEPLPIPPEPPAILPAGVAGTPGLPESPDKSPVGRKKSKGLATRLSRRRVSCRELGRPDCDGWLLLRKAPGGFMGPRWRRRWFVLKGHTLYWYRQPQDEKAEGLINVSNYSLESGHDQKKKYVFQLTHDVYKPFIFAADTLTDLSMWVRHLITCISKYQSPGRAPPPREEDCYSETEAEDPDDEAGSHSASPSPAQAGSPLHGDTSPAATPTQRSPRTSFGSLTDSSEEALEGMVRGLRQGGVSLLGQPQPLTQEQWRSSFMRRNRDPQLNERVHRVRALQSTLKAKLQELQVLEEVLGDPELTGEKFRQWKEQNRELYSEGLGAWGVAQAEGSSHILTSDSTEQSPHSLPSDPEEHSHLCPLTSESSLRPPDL
Description: Fluorescence lifetime imaging microscopy (FLIM). Format: cell-based. The settings on record: FIG. 13, FLIM. Here is the method:
FLIM experiments were carried out using a Leica TCP SP5 inverted advanced confocal microscope system with internal photomultiplier tube (PMT) detector for TCSPC (time-correlated single-photon counting). The sample was excited with a tunable femtosecond (fs) titanium-sapphire laser with repetition rate of 80 MHz and pulse width less then 80 fs (Spectral Physics, Mai Tai BB). The wavelength used for two-photon excitation was 930 nm and the fluorescence was detected through a 525±25 nm interference filter. Images were obtained with oil-immersion objective (numerical aperture NA=1.4), a line scan speed of 400 Hz, with image size of 512×512 pixels. For FLIM analysis the pixels were reduced to 256×256. FLIM data was collected using Becker & Hickl SPC830 data and image acquisition card for TCSPC.

A short description of data set [3]: Stability in biological media: fetal bovine serum. Format: in vitro ADME. As to conditions: 10% fetal bovine serum, 50 μg/ml, 37° C.
For data set [4], the system named is H1975 (KRAS wildtype cell line). Description: Proliferation Assay H1975. Type of data set: cell-based. The settings on record: Homo sapiens, NCI-H1975, n = 1. In a few lines: as §1

The IC50 is the concentration that gives 50% inhibition.

In the case of `CCOC(=O)Cc1nn(Cc2nc(-c3ccc(C)cc3)cs2)c(=O)c2ccccc12` [Compound 7], the IC50 in data set [1] was over 100 µM; in data set [4], 45 µM. Besides, the Half life on rHuman carboxyesterase 1 came out at 0.317 h; in data set [3], 13.2 h. In data set [2], the “direct binding of CNKSR1 to mut-KRAS in cells” value is reported as “inhibit”.

These data come from patent publication US9340532B2, “Methods and compositions for inhibiting CNKSR1” (PHUSIS THERAPEUTICS, INC., priority 2012, dated 2016).
